By IC50 is commonly meant the concentration that inhibits the measured activity by half. The melting point is the temperature, or range, at which the solid turns liquid.

The target of data set [1] is active human recombinant Src (Homo sapiens, UniProt P12931). The data set is described as follows: Z'-LYTE kinase assay (FRET), primary screen. In kind it is biochemical. The conditions noted are these: isolated enzyme, mean ± SD of two independent experiments.
Protocol: (§3) Enzymatic assays to determine the kinase inhibitory activity of NCEs were performed using an automatic liquid-handling device (Microlab STAR Hamilton) and Z’-LYTE Kinase Assay Platform, a fluorescence resonance energy transfer (FRET)-based assay platform compatible with high-throughput screening (HTS) applications. […] The assay procedure was carried out according to the supplier’s indications. […] Final results have been expressed as percent inhibition, and IC50 values were calculated by non-linear curve fitting using GraphPad Prism software (version 6 for Windows). The inter-experimental variability of IC50 values resulted within accepted limits of ±0.5 log units.
In a further data set the target is T1, Fyn (Homo sapiens, UniProt P06241).
T1 construct: (Fyn, LynA, and Yes1, all human recombinant full-length proteins)
T1 sequence (P06241 whole entry): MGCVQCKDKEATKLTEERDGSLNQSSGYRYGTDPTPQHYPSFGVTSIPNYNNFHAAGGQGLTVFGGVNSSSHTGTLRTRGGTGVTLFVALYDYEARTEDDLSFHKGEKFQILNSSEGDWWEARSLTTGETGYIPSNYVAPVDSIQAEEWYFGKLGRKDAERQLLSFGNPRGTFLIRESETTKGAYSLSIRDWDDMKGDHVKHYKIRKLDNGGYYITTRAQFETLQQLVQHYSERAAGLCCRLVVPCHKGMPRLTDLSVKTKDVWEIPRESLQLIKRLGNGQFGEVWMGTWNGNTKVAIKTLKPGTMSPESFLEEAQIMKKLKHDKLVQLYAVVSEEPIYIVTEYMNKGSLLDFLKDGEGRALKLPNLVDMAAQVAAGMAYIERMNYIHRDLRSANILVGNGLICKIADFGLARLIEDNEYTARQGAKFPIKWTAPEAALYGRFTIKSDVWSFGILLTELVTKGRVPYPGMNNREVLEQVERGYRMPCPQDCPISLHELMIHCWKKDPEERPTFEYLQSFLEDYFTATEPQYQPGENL
The data set is described as follows: Z'-LYTE kinase assay (FRET), SFK profiling. The data set is classed as biochemical. The conditions noted are these: isolated enzyme, mean ± SD of two independent experiments.

The target of the next data set is T2, LynA (Homo sapiens, UniProt P07948).
T2 construct: (Fyn, LynA, and Yes1, all human recombinant full-length proteins)
T2 sequence (P07948 whole entry): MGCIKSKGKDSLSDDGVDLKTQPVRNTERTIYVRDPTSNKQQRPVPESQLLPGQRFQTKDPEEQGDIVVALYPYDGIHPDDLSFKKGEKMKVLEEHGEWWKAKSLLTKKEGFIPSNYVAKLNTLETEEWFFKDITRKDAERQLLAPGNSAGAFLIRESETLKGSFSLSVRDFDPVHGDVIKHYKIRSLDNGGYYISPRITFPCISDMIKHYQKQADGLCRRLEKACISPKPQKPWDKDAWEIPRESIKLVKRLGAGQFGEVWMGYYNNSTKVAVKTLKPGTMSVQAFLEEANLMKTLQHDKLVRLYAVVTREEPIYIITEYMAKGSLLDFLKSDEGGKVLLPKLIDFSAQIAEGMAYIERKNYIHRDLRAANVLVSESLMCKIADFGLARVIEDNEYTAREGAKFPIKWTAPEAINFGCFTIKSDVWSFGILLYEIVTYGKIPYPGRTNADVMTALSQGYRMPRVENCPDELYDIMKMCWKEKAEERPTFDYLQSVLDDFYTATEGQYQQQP
The experiment in a line: Z'-LYTE kinase assay (FRET), SFK profiling. The data set is classed as biochemical. The conditions noted are these: isolated enzyme, mean ± SD of two independent experiments; read-out: Lyn IC50.

The next data set concerns the target T3, Yes1 (Homo sapiens, UniProt P07947).
T3 construct: (Fyn, LynA, and Yes1, all human recombinant full-length proteins)
The experiment in a line: Z'-LYTE kinase assay (FRET), SFK profiling. The data set is classed as biochemical. To be noted: isolated enzyme, mean ± SD of two independent experiments; read-out: Yes IC50.

For data set [2], the system named is SH-SY5Y neuroblastoma cell line. The data set is described as follows: Antiproliferative assay, viable cell count after 72 h. The conditions noted are these: for increased activity compared to the hit compound 2 on SH-SY5Y cells: 72 h, ratio of IC50 values; for IC50: Homo sapiens, 72 h incubation, read-out: IC50 antiproliferative activity on SH-SY5Y cells. The data set is classed as cell-based, human. The method, then:
(§1) Starting from these promising results in enzymatic assays, we decided to test NCEs 4 on K562 CML and SH-SY5Y NB cell lines, to evaluate if they are endowed with an increased antiproliferative activity compared with the hit compound 2. A hyperactivation of SFKs has been detected in both K562 and SH-SY5Y cell lines. Cells were treated with increasing concentrations of compounds and cell proliferation was measured by counting viable cells after 72 h of incubation. […] The activity of these compounds could be due not only to Src inhibition, but also to their effect on Fyn and Lyn, both involved in NB development.
(§2) In vitro experiments were carried out using human neuroblastoma cell line SH-SY5Y, human glioblastoma cell line U-87, and human erythroleukemia cell line K-562. Cell lines were obtained from American Tissue Culture Collection (ATCC, SH-SY5Y CRL-2266; U-87 HTB-14; K-562 CCL-243). K-562 cells were cultured in RPMI medium with 10% FCS. SH-SY5Y and U-87 cells were cultured in DMEM medium with 10% FCS. In order to determine antiproliferative effect of NCE compounds cells were seeded at density of 5 × 10^4 cells/mL (K-562) or 10 × 10^4 cells/cm^2 (SH-SY5Y, U-87) and treated with increasing concentrations of NCE compounds. Control cells were treated with the vehicle of the experimental point containing the highest percentage of DMSO. Cell cultures were maintained at 37 °C in 5% v/v CO2 for 72 h. Cell number and vitality were evaluated on cell suspension using the automatic cell counter NucleoCounter® (Chemometec, Denmark). Results from the NucleoCounter represented either total or non-viable cell concentration, depending on the sample preparation indicated by the manufacturer. Each experiment was performed at least three times and results were expressed as mean and standard deviation.

For data set [3], the system named is K562 CML cell line. The data set is described as above. In kind it is cell-based. The conditions noted are these: Homo sapiens; K562, 72 h incubation; read-out: IC50 antiproliferative activity on K562 cells. The method, then: as §1
In vitro experiments were carried out using human neuroblastoma cell line SH-SY5Y, human glioblastoma cell line U-87, and human erythroleukemia cell line K-562. Cell lines were obtained from American Tissue Culture Collection (ATCC, SH-SY5Y CRL-2266; U-87 HTB-14; K-562 CCL-243). K-562 cells were cultured in RPMI medium with 10% FCS. SH-SY5Y and U-87 cells were cultured in DMEM medium with 10% FCS. […] Cell number and vitality were evaluated on cell suspension using the automatic cell counter NucleoCounter® (Chemometec, Denmark). […] Each experiment was performed at least three times and results were expressed as mean and standard deviation.

For data set [4], the system named is U87 glioblastoma multiforme cells. Described as above. In kind it is cell-based. The conditions noted are these: Homo sapiens; U87, 72 h incubation. The method, then:
A possible explanation could be the multidrug resistance mechanisms that GBM cells usually carry: an example is the overexpression of membrane channels (ABCB1) that are able to pump different kind of drugs out of the cells. In Supplementary Materials, Figure S1, the activity of other NCEs on U87 GBM cell line are reported.
as §2, with “Results from the NucleoCounter represented either total or non-viable cell concentration, depending on the sample preparation indicated by the manufacturer.” left out

Another data set concerns Jak2. More on the design: method as in PMID 24359159. The conditions noted are these: cited from earlier work.
Data set [5] concerns K562 CML cell line. Set-up: method as in PMID 26514807. To be noted: previous work; cited from earlier work.
In data set [6] the test system is SH-SY5Y neuroblastoma cell line. Set-up: method as in PMID 26514807. The conditions noted are these: previous work; cited from earlier work.

Read-outs that look alike come from different tables or passages of the source.

T3 sequence (P07947 whole entry): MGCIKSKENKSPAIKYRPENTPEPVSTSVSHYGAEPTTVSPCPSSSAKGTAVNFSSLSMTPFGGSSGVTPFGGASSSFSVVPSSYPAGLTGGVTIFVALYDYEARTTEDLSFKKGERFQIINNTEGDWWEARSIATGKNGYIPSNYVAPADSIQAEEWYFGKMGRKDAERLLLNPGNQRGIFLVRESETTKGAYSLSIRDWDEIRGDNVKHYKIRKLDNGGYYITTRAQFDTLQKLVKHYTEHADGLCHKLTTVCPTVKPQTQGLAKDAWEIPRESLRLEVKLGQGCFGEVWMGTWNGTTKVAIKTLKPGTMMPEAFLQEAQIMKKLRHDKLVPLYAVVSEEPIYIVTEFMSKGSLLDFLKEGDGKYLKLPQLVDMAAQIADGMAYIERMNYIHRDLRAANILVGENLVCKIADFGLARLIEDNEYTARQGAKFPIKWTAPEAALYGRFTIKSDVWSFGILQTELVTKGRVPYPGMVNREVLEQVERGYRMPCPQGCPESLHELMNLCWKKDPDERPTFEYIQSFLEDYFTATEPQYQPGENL
Sequence of active human recombinant Src (P12931 whole entry): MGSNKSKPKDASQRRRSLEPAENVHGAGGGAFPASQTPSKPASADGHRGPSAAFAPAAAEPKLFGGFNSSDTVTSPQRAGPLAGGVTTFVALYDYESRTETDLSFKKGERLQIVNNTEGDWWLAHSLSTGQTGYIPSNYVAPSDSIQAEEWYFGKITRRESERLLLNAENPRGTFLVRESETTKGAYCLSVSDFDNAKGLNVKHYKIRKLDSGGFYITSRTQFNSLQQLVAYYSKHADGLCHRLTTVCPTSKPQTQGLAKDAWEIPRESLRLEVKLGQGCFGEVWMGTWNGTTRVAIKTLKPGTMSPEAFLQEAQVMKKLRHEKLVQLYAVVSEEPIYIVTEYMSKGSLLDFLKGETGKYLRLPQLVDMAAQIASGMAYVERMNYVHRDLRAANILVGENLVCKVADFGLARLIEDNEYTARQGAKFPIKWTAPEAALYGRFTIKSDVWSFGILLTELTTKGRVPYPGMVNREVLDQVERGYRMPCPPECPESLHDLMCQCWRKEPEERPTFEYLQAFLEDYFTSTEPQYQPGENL
Protocol for Fyn: as §3
Protocol for LynA: as §3
Protocol for Yes1: as §3

Regarding `COc1cccc(CCn2cnc(Nc3cc(N4CCN(CCO)CC4)nc(C)n3)c2)c1` [4a, 2-{4-[6-({1-[2-(3-Methoxyphenyl)ethyl]-1H-imidazol-4-yl}amino)-2-methylpyrimidin-4-yl]piperazin-1-yl}ethanol], the IC50 in data set [1] stood at 0.26 ± 0.023 µM; against Fyn it was 0.146 ± 0.03 µM; on LynA it was 0.451 ± 0.013 µM; on Yes1 it was 0.56 ± 0.04 µM.

For the molecule `COc1cccc(CCn2cnc(Nc3cc(N4CCN(CC(N)=O)CC4)nc(C)n3)c2)c1` [4b, 2-{4-[6-({1-[2-(3-Methoxyphenyl)ethyl]-1H-imidazol-4-yl}amino)-2-methylpyrimidin-4-yl]piperazin-1-yl}acetamide], the melting point lay in the range of 198 to 200 °C. For the same molecule, the concentration for half-maximal inhibition (IC50) in [1] amounted to 1.48 ± 0.185 µM. At Fyn, half-maximal inhibition (IC50) was put at 1.45 ± 0.768 µM. Moreover, the half-inhibitory concentration (IC50) at LynA turned out to be 1.81 ± 0.307 µM. Also, the half-maximal inhibitory concentration (IC50) at Yes1 was determined as 1.84 ± 0.812 µM.

Take `COc1ccccc1CCn1cnc(Nc2cc(N3CCN(CCO)CC3)nc(C)n2)c1` [4c, 2-{4-[6-({1-[2-(2-Methoxyphenyl)ethyl]-1H-imidazol-4-yl}amino)-2-methylpyrimidin-4-yl]piperazin-1-yl}ethanol]: the concentration for half-maximal inhibition (IC50) is 0.225 ± 0.008 µM in data set [1], 0.439 ± 0.045 µM against Fyn, 0.145 ± 0.031 µM at LynA and 0.055 ± 0.009 µM at Yes1.

Regarding `COc1ccccc1CCn1cnc(Nc2cc(N3CCN(CC(N)=O)CC3)nc(C)n2)c1` [4d, 2-{4-[6-({1-[2-(2-Methoxyphenyl)ethyl]-1H-imidazol-4-yl}amino)-2-methylpyrimidin-4-yl]piperazin-1-yl}acetamide], the concentration for half-maximal inhibition (IC50) in data set [1] was determined as 1.53 ± 0.044 µM; against Fyn it was 1.39 ± 0.093 µM; on LynA, 1.2 ± 0.189 µM.

For the molecule `Cc1nc(Nc2cn(CCc3ccccc3O)cn2)cc(N2CCN(CCO)CC2)n1` [4e, 2-{2-[4-({6-[4-(2-Hydroxyethyl)piperazin-1-yl]-2-methylpyrimidin-4-yl}amino)-1H-imidazol-1-yl]ethyl}phenol], the IC50 in data set [1] is 0.059 ± 0.005 µM; against Fyn it was 0.073 ± 0.005 µM; at LynA, 0.017 ± 0.00054 µM; on Yes1 it was 0.011 ± 0.0006 µM.

Consider `Cc1nc(Nc2cn(CCc3ccccc3O)cn2)cc(N2CCNCC2)n1` [4f, 2-(2-{4-[(2-Methyl-6-piperazin-1-ylpyrimidin-4-yl)amino]-1H-imidazol-1-yl}ethyl)phenol], for which the melting point was 193 to 196 °C. Also, the IC50 in data set [1] was found to be 0.056 ± 0.005 µM. The same molecule displayed an IC50 at Fyn of 0.05 ± 0.004 µM. In addition, on LynA, the IC50 came out at 0.051 ± 0.003 µM. The half-maximal inhibitory concentration (IC50) on Yes1 is 0.003 ± 0.001 µM.

`Cc1nc(Nc2cn(CCc3ccccc3O)cn2)cc(N2CCN(CC(N)=O)CC2)n1` [4g, 2-{4-[6-({1-[2-(2-Hydroxyphenyl)ethyl]-1H-imidazol-4-yl}amino)-2-methylpyrimidin-4-yl]piperazin-1-yl}acetamide] registered a melting point of 160 to 163 °C. The concentration for half-maximal inhibition (IC50) in data set [1] worked out at 0.04 ± 0.005 µM. Further, half-maximal inhibition against Fyn (IC50) required 0.04 ± 0.005 µM. Moreover, the IC50 on LynA was found to be 0.019 ± 0.002 µM. Further, the half-maximal inhibitory concentration (IC50) on Yes1 was 0.015 ± 0.004 µM.

The molecule `Cc1nc(Nc2cn(CCc3cccc(O)c3)cn2)cc(N2CCN(CCO)CC2)n1` [4h, 3-{2-[4-({6-[4-(2-Hydroxyethyl)piperazin-1-yl]-2-methylpyrimidin-4-yl}amino)-1H-imidazol-1-yl]ethyl}phenol] displayed a melting point of 150 to 155 °C. In addition, the concentration for half-maximal inhibition (IC50) in [1] came to 0.093 ± 0.019 µM. The same molecule came in with an IC50 on Fyn of 0.01 ± 0.0004 µM. At LynA, the IC50 worked out at 0.02 ± 0.0008 µM. The IC50 on Yes1 is 0.003 ± 0.001 µM.

The molecule `Cc1nc(Nc2cn(CCc3cccc(O)c3)cn2)cc(N2CCNCC2)n1` [4i, 3-(2-{4-[(2-Methyl-6-piperazin-1-ylpyrimidin-4-yl)amino]-1H-imidazol-1-yl}ethyl)phenol] gave a melting point of 193 to 196 °C. Moreover, the half-inhibitory concentration (IC50) in data set [1] turned out to be 0.083 ± 0.018 µM. This molecule also displayed a concentration for half-maximal inhibition (IC50) on Fyn of 0.01 ± 0.0004 µM. Moreover, the IC50 on LynA turned out to be 0.027 ± 0.001 µM. Also, the 50% inhibitory concentration (IC50) on Yes1 was determined as 0.003 ± 0.0008 µM.

`Cc1nc(Nc2cn(CCc3cccc(O)c3)cn2)cc(N2CCN(CC(N)=O)CC2)n1` [4j, 2-{4-[6-({1-[2-(3-Hydroxyphenyl)ethyl]-1H-imidazol-4-yl}amino)-2-methylpyrimidin-4-yl]piperazin-1-yl}acetamide]: the IC50 in [1] came out at 0.04 ± 0.003 µM; on Fyn, 0.012 ± 0.002 µM; at LynA, 0.01 ± 0.0012 µM; on Yes1, 0.003 ± 0.0007 µM.

With `COC(=O)CN1CCN(c2cc(Nc3cn(CCc4cccc(O)c4)cn3)nc(C)n2)CC1` [4k, Methyl{4-[6-({1-[2-(3-hydroxyphenyl)ethyl]-1H-imidazol-4-yl}amino)-2-methylpyrimidin-4-yl]piperazin-1-yl}acetate], the melting point lay within 127 to 130 °C. In [2], the “increased activity compared to the hit compound 2 on SH-SY5Y cells” value is reported as “more than 2 fold” and the half-maximal inhibitory concentration (IC50) stood at 8.6 µM. Moreover, in data set [1], the 50% inhibitory concentration (IC50) amounted to 0.04 ± 0.002 µM. On Fyn, this molecule registered an IC50 of 0.009 ± 0.001 µM. Moreover, at LynA, the IC50 was found to be 0.018 ± 0.001 µM. Moreover, in the data set with K562 CML cell line [3], the IC50 stood at 11.7 µM. Also, the IC50 in data set [4] was found to be 12.6 µM. Moreover, the half-maximal inhibitory concentration (IC50) at Yes1 was determined as 0.003 ± 0.001 µM.

`Cc1nc(Nc2cn(CCc3cccc(O)c3)cn2)cc(N2CCN(C(=O)OC(C)(C)C)CC2)n1` [4l, tert-Butyl4-[6-({1-[2-(3-hydroxyphenyl)ethyl]-1H-imidazol-4-yl}amino)-2-methylpyrimidin-4-yl]piperazine-1-carboxylate] registered a melting point of 127 to 130 °C. In [2], the “increased activity compared to the hit compound 2 on SH-SY5Y cells” value is on record as “more than 2 fold” and the IC50 stood at 7.8 µM. Also, the concentration for half-maximal inhibition (IC50) in data set [1] amounted to 0.05 ± 0.003 µM. This molecule also yielded a 50% inhibitory concentration (IC50) on Fyn of 0.014 ± 0.0015 µM. In addition, the concentration for half-maximal inhibition (IC50) at LynA came out at 0.026 ± 0.003 µM. The IC50 in the data set with K562 CML cell line [3] amounted to 18.9 µM. The molecule also registered a half-inhibitory concentration (IC50) in data set [4] of 13.3 µM. Moreover, the IC50 on Yes1 turned out to be 0.007 ± 0.00035 µM.

As for `Cc1cc(Nc2nc(N[C@@H](C)c3ncc(F)cn3)ncc2Cl)n[nH]1` [AZD1480], the IC50 with Jak2 was 0.058 µM.

As for `Cc1nc(Nc2cn(CCc3ccccc3)cn2)cc(N2CCN(CCO)CC2)n1` [compound 2], the 50% inhibitory concentration (IC50) in the data set on K562 CML cell line [5] was greater than 25 µM; in [6], 25 µM.

Source of the values: PMC6225123, “Optimization of Aminoimidazole Derivatives as Src Family Kinase Inhibitors” (Molecules : A Journal of Synthetic Chemistry and Natural …, 2018).
